Source: PubChem BioAssay AID1259407 (Chemical Carcinogenesis Research Information System (CCRIS), 2018)
Activity calls are given as the source filed them. The rule behind the calls is not given here.

Tested on: CCRIS mutagenicity, Ames/micronucleus/aberration tests
Assay: CCRIS mutagenicity studies
[1] = Test System: AMES SALMONELLA TYPHIMURIUM, Strain/Indicator: TA98, Metabolic Activation: NONE, Method: PREINCUBATION
[2] = Test System: AMES SALMONELLA TYPHIMURIUM, Strain/Indicator: TA100, Metabolic Activation: HAMSTER, LIVER, S-9, AROCLOR 1254 (10%), Method: PREINCUBATION
[3] = Test System: AMES SALMONELLA TYPHIMURIUM, Strain/Indicator: TA100, Metabolic Activation: NONE, Method: PREINCUBATION
[4] = Test System: AMES SALMONELLA TYPHIMURIUM, Strain/Indicator: TA100, Metabolic Activation: RAT, LIVER, S-9, AROCLOR 1254 (10%), Method: PREINCUBATION
[5] = Test System: AMES SALMONELLA TYPHIMURIUM, Strain/Indicator: TA1535, Metabolic Activation: NONE, Method: PREINCUBATION
[6] = Test System: AMES SALMONELLA TYPHIMURIUM, Strain/Indicator: TA98, Metabolic Activation: NONE, Method: STANDARD PLATE
[7] = Test System: AMES SALMONELLA TYPHIMURIUM, Strain/Indicator: TA100, Metabolic Activation: NONE, Method: STANDARD PLATE

## C=C1C/C(=C/C)C(=O)O[C@@H]2CCN3CC=C(COC(=O)[C@@]1(O)CO)[C@H]23
End Point: IN VITRO CHROMOSOMAL ABERRATIONS, Test System: CHINESE HAMSTER OVARY CELLS, Metabolic Activation: NONE
  mutagenic call: inactive; negative
End Point: IN VITRO CHROMOSOMAL ABERRATIONS, Test System: CHINESE HAMSTER OVARY CELLS, Metabolic Activation: RAT, LIVER, S-9, AROCLOR 1254
  mutagenic call: active; positive; very high frequencies of aberrations were induced in the 25 cells coun
Test System: AMES SALMONELLA TYPHIMURIUM, Strain/Indicator: TA97, Metabolic Activation: HAMSTER, LIVER, S-9, AROCLOR 1254 (10 OR 30%), Method: PREINCUBATION
  mutagenic call: inactive; negative
Test System: AMES SALMONELLA TYPHIMURIUM, Strain/Indicator: TA97, Metabolic Activation: NONE, Method: PREINCUBATION
  mutagenic call: inactive; negative
Test System: AMES SALMONELLA TYPHIMURIUM, Strain/Indicator: TA97, Metabolic Activation: RAT, LIVER, S-9, AROCLOR 1254 (10 OR 30%), Method: PREINCUBATION
  mutagenic call: inactive; negative
Test System: AMES SALMONELLA TYPHIMURIUM, Strain/Indicator: TA98, Metabolic Activation: HAMSTER, LIVER, S-9, AROCLOR 1254 (10 OR 30%), Method: PREINCUBATION
  mutagenic call: inactive; negative
[1]
  mutagenic call: inactive; negative
Test System: AMES SALMONELLA TYPHIMURIUM, Strain/Indicator: TA98, Metabolic Activation: RAT, LIVER, S-9, AROCLOR 1254 (10 OR 30%), Method: PREINCUBATION
  mutagenic call: inactive; negative
[2]
  mutagenic call: inactive; negative
Test System: AMES SALMONELLA TYPHIMURIUM, Strain/Indicator: TA100, Metabolic Activation: HAMSTER, LIVER, S-9, AROCLOR 1254 (30%), Method: PREINCUBATION
  mutagenic call: active; positive
[3]
  mutagenic call: inactive; negative
[4]
  mutagenic call: inactive; negative
Test System: AMES SALMONELLA TYPHIMURIUM, Strain/Indicator: TA100, Metabolic Activation: RAT, LIVER, S-9, AROCLOR 1254 (30%), Method: PREINCUBATION
  mutagenic call: active; positive
Test System: AMES SALMONELLA TYPHIMURIUM, Strain/Indicator: TA1535, Metabolic Activation: HAMSTER, LIVER, S-9, AROCLOR 1254 (10 OR 30%), Method: PREINCUBATION
  mutagenic call: inactive; negative
[5]
  mutagenic call: inactive; negative
Test System: AMES SALMONELLA TYPHIMURIUM, Strain/Indicator: TA1535, Metabolic Activation: RAT, LIVER, S-9, AROCLOR 1254 (10 OR 30%), Method: PREINCUBATION
  mutagenic call: inactive; negative

## CCc1ccc(/C=C/c2ccc(N)cc2)cc1
[6]
  mutagenic call: inactive; negative
Test System: AMES SALMONELLA TYPHIMURIUM, Strain/Indicator: TA98, Metabolic Activation: RAT LIVER S9, AROCLOR, Method: STANDARD PLATE
  mutagenic call: active; positive
[7]
  mutagenic call: inactive; negative
Test System: AMES SALMONELLA TYPHIMURIUM, Strain/Indicator: TA100, Metabolic Activation: RAT, LIVER, S9, AROCLOR, Method: STANDARD PLATE
  mutagenic call: active; positive

## CC1(C)CCC[C@]2(C)[C@@H](C=O)C(C=O)=CC[C@@H]12
[6]
  mutagenic call: inactive; negative
[7]
  mutagenic call: inactive; negative
Test System: AMES SALMONELLA TYPHIMURIUM, Strain/Indicator: TA2637, Metabolic Activation: NONE, Method: STANDARD PLATE
  mutagenic call: inactive; negative
Test System: CHINESE HAMSTER V-79, Strain/Indicator: V-79/6-THIOGUANINE (HGPRT), Metabolic Activation: NONE
  mutagenic call: inactive; negative

## CC(=O)c1c(=O)cc(C)oc1=O
End Point: IN VIVO MICRONUCLEUS, Test System: BONE MARROW POLYCHROMATIC ERYTHROCYTES, Species: MOUSE, Strain/Sex: DDY/MALE, Route: IP
  mutagenic call: active; positive
Test System: AMES SALMONELLA TYPHIMURIUM, Strain/Indicator: TA97A, Metabolic Activation: NONE, Method: PREINCUBATION
  mutagenic call: inactive; negative
Test System: AMES SALMONELLA TYPHIMURIUM, Strain/Indicator: TA97A, Metabolic Activation: RAT, LIVER, S-9, AROCLOR 1254, Method: PREINCUBATION
  mutagenic call: inactive; negative
Test System: AMES SALMONELLA TYPHIMURIUM, Strain/Indicator: TA98, Metabolic Activation: HAMSTER, LIVER, S-9, AROCLOR 1254 (10%), Method: PREINCUBATION
  mutagenic call: inactive; negative
[1]
  mutagenic call: inactive; negative
Test System: AMES SALMONELLA TYPHIMURIUM, Strain/Indicator: TA98, Metabolic Activation: RAT, LIVER, S-9, AROCLOR 1254 (10%), Method: PREINCUBATION
  mutagenic call: inactive; negative
[2]
  mutagenic call: inactive; negative
[3]
  mutagenic call: inactive; negative
[4]
  mutagenic call: inactive; negative
Test System: AMES SALMONELLA TYPHIMURIUM, Strain/Indicator: TA102, Metabolic Activation: NONE, Method: PREINCUBATION
  mutagenic call: inactive; negative
Test System: AMES SALMONELLA TYPHIMURIUM, Strain/Indicator: TA102, Metabolic Activation: RAT, LIVER, S-9, AROCLOR 1254, Method: PREINCUBATION
  mutagenic call: inactive; negative
Test System: AMES SALMONELLA TYPHIMURIUM, Strain/Indicator: TA1535, Metabolic Activation: HAMSTER, LIVER, S-9, AROCLOR 1254 (10%), Method: PREINCUBATION
  mutagenic call: inactive; negative
[5]
  mutagenic call: inactive; negative
Test System: AMES SALMONELLA TYPHIMURIUM, Strain/Indicator: TA1535, Metabolic Activation: RAT, LIVER, S-9, AROCLOR 1254 (10%), Method: PREINCUBATION
  mutagenic call: inactive; negative
Test System: AMES SALMONELLA TYPHIMURIUM, Strain/Indicator: TA1537, Metabolic Activation: HAMSTER, LIVER, S-9, AROCLOR 1254 (10%), Method: PREINCUBATION
  mutagenic call: inactive; negative
Test System: AMES SALMONELLA TYPHIMURIUM, Strain/Indicator: TA1537, Metabolic Activation: NONE, Method: PREINCUBATION
  mutagenic call: inactive; negative
Test System: AMES SALMONELLA TYPHIMURIUM, Strain/Indicator: TA1537, Metabolic Activation: RAT, LIVER, S-9, AROCLOR 1254 (10%), Method: PREINCUBATION
  mutagenic call: inactive; negative

## O=C(O)/C=C/Cl
Test System: AMES SALMONELLA TYPHIMURIUM, Strain/Indicator: TA97, Metabolic Activation: RAT, LIVER, S-9, PCB, Method: STANDARD PLATE
  mutagenic call: active; positive
Test System: AMES SALMONELLA TYPHIMURIUM, Strain/Indicator: TA102, Metabolic Activation: RAT, LIVER, S-9, PCB, Method: STANDARD PLATE
  mutagenic call: active; positive

## CCOC(=O)C(SP(=S)(OC)OC)c1ccccc1 (configuration not stated)
[6]
  mutagenic call: inactive; negative
Test System: AMES SALMONELLA TYPHIMURIUM, Strain/Indicator: TA98, Metabolic Activation: S-9, NADPH GENERATING SYSTEM, Method: STANDARD PLATE
  mutagenic call: inactive; negative
Test System: AMES SALMONELLA TYPHIMURIUM, Strain/Indicator: TA102, Metabolic Activation: NONE, Method: STANDARD PLATE
  mutagenic call: inactive; negative
Test System: AMES SALMONELLA TYPHIMURIUM, Strain/Indicator: TA102, Metabolic Activation: S-9, NADPH GENERATING SYSTEM, Method: STANDARD PLATE
  mutagenic call: inactive; negative
Test System: AMES SALMONELLA TYPHIMURIUM, Strain/Indicator: TA1535, Metabolic Activation: NONE, Method: STANDARD PLATE
  mutagenic call: inactive; negative
Test System: AMES SALMONELLA TYPHIMURIUM, Strain/Indicator: TA1535, Metabolic Activation: S-9, NADPH GENERATING SYSTEM, Method: STANDARD PLATE
  mutagenic call: inactive; negative
Test System: AMES SALMONELLA TYPHIMURIUM, Strain/Indicator: TA1537, Metabolic Activation: NONE, Method: STANDARD PLATE
  mutagenic call: inactive; negative
Test System: AMES SALMONELLA TYPHIMURIUM, Strain/Indicator: TA1537, Metabolic Activation: S-9, NADPH GENERATING SYSTEM, Method: STANDARD PLATE
  mutagenic call: inactive; negative

## Nc1[nH]c(=O)nc2c1ncn2[C@@H]1O[C@H](CO)[C@@H](O)[C@H]1O
[3]
  mutagenic call: inactive; negative
